Data published in the supplement of paper PMC4862054.

The molecules below were run on HDQ-P1 (assay: normalised response (% of control), CellTiter-Glo; higher = more viable cells (100 = DMSO, 0 = benzethonium chloride kill control)). Conditions: incubation time: 72 h.
Experimental: (§1)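 DSRT, 72 h incubation, CellTox Green / CellTiter-Glo readout. Signal is normalised to DMSO and benzethonium chloride controls. Value is the normalised response at dose 3.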

`O=C(NC[C@H](O)CO)c1ccncc1Nc1ccc(I)cc1F` [Pimasertib] (100 nM) showed a normalised response of 67.1%.

The molecules below were run on HCC1143 in the same assay as above. Conditions: incubation time: 72 h.
Experimental: as §1

In order of rising normalised response:
1. COc1ccc(-c2cc3c(C)nc(N)nc3n([C@H]3CC[C@H](OCCO)CC3)c2=O)cn1 (100 nM)  76.8%
2. CO[C@@H](C(=O)N1Cc2[nH]nc(NC(=O)c3ccc(N4CCN(C)CC4)cc3)c2C1)c1ccccc1 [Danusertib] (100 nM)  91.4%
3. O=C(NC[C@H](O)CO)c1ccncc1Nc1ccc(I)cc1F [Pimasertib] (100 nM)  94.7%
4. CC/C(=C(\c1ccc(O)cc1)c1ccc(OCCN(C)C)cc1)c1ccccc1 [4-hydroxytamoxifen] (100 nM)  96.2%
5. Nc1cccc2c1CN(C1CCC(=O)NC1=O)C2=O (configuration not stated) [Lenalidomide] (100 nM)  99.1%
6. O=S(=O)(c1cccc2cnccc12)N1CCCNCC1 [Fasudil] (500 nM)  101%
7. Nc1ccccc1NC(=O)c1ccc(CNc2nccc(-c3cccnc3)n2)cc1 [Mocetinostat] (100 nM)  102%
8. Cc1ccc(Nc2nccc(N(C)c3ccc4c(C)n(C)nc4c3)n2)cc1S(N)(=O)=O [Pazopanib] (100 nM)  105%
9. O=C(Nc1c[nH]nc1-c1nc2ccc(CN3CCOCC3)cc2[nH]1)NC1CC1 [AT9283] (10 nM)  109%

Each molecule was assayed on BT-549 in the same assay as above. Conditions: incubation time: 72 h.
Experimental: as §1

In order of falling normalised response:
1. CC/C(=C(\c1ccc(O)cc1)c1ccc(OCCN(C)C)cc1)c1ccccc1 [4-hydroxytamoxifen] (100 nM)  107%
2. Nc1ccccc1NC(=O)c1ccc(CNc2nccc(-c3cccnc3)n2)cc1 [Mocetinostat] (100 nM)  106%
3. Nc1cccc2c1CN(C1CCC(=O)NC1=O)C2=O (configuration not stated) [Lenalidomide] (100 nM)  103%
4. O=C(NC[C@H](O)CO)c1ccncc1Nc1ccc(I)cc1F [Pimasertib] (100 nM)  103%
5. Cc1ccc(Nc2nccc(N(C)c3ccc4c(C)n(C)nc4c3)n2)cc1S(N)(=O)=O [Pazopanib] (100 nM)  102%
6. O=S(=O)(c1cccc2cnccc12)N1CCCNCC1 [Fasudil] (500 nM)  101%
7. O=C(Nc1c[nH]nc1-c1nc2ccc(CN3CCOCC3)cc2[nH]1)NC1CC1 [AT9283] (10 nM)  94.1%
8. CO[C@@H](C(=O)N1Cc2[nH]nc(NC(=O)c3ccc(N4CCN(C)CC4)cc3)c2C1)c1ccccc1 [Danusertib] (100 nM)  92.7%
9. COc1ccc(-c2cc3c(C)nc(N)nc3n([C@H]3CC[C@H](OCCO)CC3)c2=O)cn1 (100 nM)  69.5%

What follows are molecules tested on MDA-MB-231 in the same assay as above. Conditions: incubation time: 72 h.
Experimental: as §1

In order of falling normalised response:
1. O=S(=O)(c1cccc2cnccc12)N1CCCNCC1 [Fasudil] (500 nM)  103%
2. CC/C(=C(\c1ccc(O)cc1)c1ccc(OCCN(C)C)cc1)c1ccccc1 [4-hydroxytamoxifen] (100 nM)  100%
3. O=C(Nc1c[nH]nc1-c1nc2ccc(CN3CCOCC3)cc2[nH]1)NC1CC1 [AT9283] (10 nM)  100%
4. Cc1ccc(Nc2nccc(N(C)c3ccc4c(C)n(C)nc4c3)n2)cc1S(N)(=O)=O [Pazopanib] (100 nM)  98.7%
5. Nc1ccccc1NC(=O)c1ccc(CNc2nccc(-c3cccnc3)n2)cc1 [Mocetinostat] (100 nM)  97.5%
6. CO[C@@H](C(=O)N1Cc2[nH]nc(NC(=O)c3ccc(N4CCN(C)CC4)cc3)c2C1)c1ccccc1 [Danusertib] (100 nM)  94.8%
7. Nc1cccc2c1CN(C1CCC(=O)NC1=O)C2=O (configuration not stated) [Lenalidomide] (100 nM)  94.3%
8. O=C(NC[C@H](O)CO)c1ccncc1Nc1ccc(I)cc1F [Pimasertib] (100 nM)  83.5%
9. COc1ccc(-c2cc3c(C)nc(N)nc3n([C@H]3CC[C@H](OCCO)CC3)c2=O)cn1 (100 nM)  64.8%

The molecules below were run on MDA-MB-453 in the same assay as above. Conditions: incubation time: 72 h.
Experimental: as §1

In order of rising normalised response:
1. COc1ccc(-c2cc3c(C)nc(N)nc3n([C@H]3CC[C@H](OCCO)CC3)c2=O)cn1 (100 nM)  55.7%
2. O=C(Nc1c[nH]nc1-c1nc2ccc(CN3CCOCC3)cc2[nH]1)NC1CC1 [AT9283] (10 nM)  97.1%
3. Nc1ccccc1NC(=O)c1ccc(CNc2nccc(-c3cccnc3)n2)cc1 [Mocetinostat] (100 nM)  99.4%
4. Nc1cccc2c1CN(C1CCC(=O)NC1=O)C2=O (configuration not stated) [Lenalidomide] (100 nM)  103%
5. Cc1ccc(Nc2nccc(N(C)c3ccc4c(C)n(C)nc4c3)n2)cc1S(N)(=O)=O [Pazopanib] (100 nM)  108%
6. CC/C(=C(\c1ccc(O)cc1)c1ccc(OCCN(C)C)cc1)c1ccccc1 [4-hydroxytamoxifen] (100 nM)  111%
7. O=S(=O)(c1cccc2cnccc12)N1CCCNCC1 [Fasudil] (500 nM)  112%
8. O=C(NC[C@H](O)CO)c1ccncc1Nc1ccc(I)cc1F [Pimasertib] (100 nM)  112%
9. CO[C@@H](C(=O)N1Cc2[nH]nc(NC(=O)c3ccc(N4CCN(C)CC4)cc3)c2C1)c1ccccc1 [Danusertib] (100 nM)  133%

What follows are molecules tested on CAL-85-1 in the same assay as above. Conditions: incubation time: 72 h.
Experimental: as §1

In order of falling normalised response:
1. O=S(=O)(c1cccc2cnccc12)N1CCCNCC1 [Fasudil] (500 nM)  112%
2. CC/C(=C(\c1ccc(O)cc1)c1ccc(OCCN(C)C)cc1)c1ccccc1 [4-hydroxytamoxifen] (100 nM)  105%
3. Cc1ccc(Nc2nccc(N(C)c3ccc4c(C)n(C)nc4c3)n2)cc1S(N)(=O)=O [Pazopanib] (100 nM)  104%
4. Nc1cccc2c1CN(C1CCC(=O)NC1=O)C2=O (configuration not stated) [Lenalidomide] (100 nM)  100%
5. CO[C@@H](C(=O)N1Cc2[nH]nc(NC(=O)c3ccc(N4CCN(C)CC4)cc3)c2C1)c1ccccc1 [Danusertib] (100 nM)  95.5%
6. O=C(Nc1c[nH]nc1-c1nc2ccc(CN3CCOCC3)cc2[nH]1)NC1CC1 [AT9283] (10 nM)  94.8%
7. Nc1ccccc1NC(=O)c1ccc(CNc2nccc(-c3cccnc3)n2)cc1 [Mocetinostat] (100 nM)  93.3%
8. O=C(NC[C@H](O)CO)c1ccncc1Nc1ccc(I)cc1F [Pimasertib] (100 nM)  82.4%
9. COc1ccc(-c2cc3c(C)nc(N)nc3n([C@H]3CC[C@H](OCCO)CC3)c2=O)cn1 (100 nM)  68.9%

Each molecule was assayed on CAL-148 in the same assay as above. Conditions: incubation time: 72 h.
Experimental: as §1

In order of falling normalised response:
1. Cc1ccc(Nc2nccc(N(C)c3ccc4c(C)n(C)nc4c3)n2)cc1S(N)(=O)=O [Pazopanib] (100 nM)  112%
2. O=C(Nc1c[nH]nc1-c1nc2ccc(CN3CCOCC3)cc2[nH]1)NC1CC1 [AT9283] (10 nM)  105%
3. O=S(=O)(c1cccc2cnccc12)N1CCCNCC1 [Fasudil] (500 nM)  105%
4. Nc1cccc2c1CN(C1CCC(=O)NC1=O)C2=O (configuration not stated) [Lenalidomide] (100 nM)  105%
5. CC/C(=C(\c1ccc(O)cc1)c1ccc(OCCN(C)C)cc1)c1ccccc1 [4-hydroxytamoxifen] (100 nM)  99.9%
6. Nc1ccccc1NC(=O)c1ccc(CNc2nccc(-c3cccnc3)n2)cc1 [Mocetinostat] (100 nM)  99%
7. O=C(NC[C@H](O)CO)c1ccncc1Nc1ccc(I)cc1F [Pimasertib] (100 nM)  90.4%
8. COc1ccc(-c2cc3c(C)nc(N)nc3n([C@H]3CC[C@H](OCCO)CC3)c2=O)cn1 (100 nM)  74.5%
9. CO[C@@H](C(=O)N1Cc2[nH]nc(NC(=O)c3ccc(N4CCN(C)CC4)cc3)c2C1)c1ccccc1 [Danusertib] (100 nM)  57.7%

The molecules below were run on CAL-51 in the same assay as above. Conditions: incubation time: 72 h.
Experimental: as §1

In order of falling normalised response:
1. CC/C(=C(\c1ccc(O)cc1)c1ccc(OCCN(C)C)cc1)c1ccccc1 [4-hydroxytamoxifen] (100 nM)  99%
2. Cc1ccc(Nc2nccc(N(C)c3ccc4c(C)n(C)nc4c3)n2)cc1S(N)(=O)=O [Pazopanib] (100 nM)  96.7%
3. O=S(=O)(c1cccc2cnccc12)N1CCCNCC1 [Fasudil] (500 nM)  85.6%
4. CO[C@@H](C(=O)N1Cc2[nH]nc(NC(=O)c3ccc(N4CCN(C)CC4)cc3)c2C1)c1ccccc1 [Danusertib] (100 nM)  82.5%
5. Nc1ccccc1NC(=O)c1ccc(CNc2nccc(-c3cccnc3)n2)cc1 [Mocetinostat] (100 nM)  78.3%
6. O=C(NC[C@H](O)CO)c1ccncc1Nc1ccc(I)cc1F [Pimasertib] (100 nM)  73.7%
7. Nc1cccc2c1CN(C1CCC(=O)NC1=O)C2=O (configuration not stated) [Lenalidomide] (100 nM)  69.2%
8. O=C(Nc1c[nH]nc1-c1nc2ccc(CN3CCOCC3)cc2[nH]1)NC1CC1 [AT9283] (10 nM)  67.3%
9. COc1ccc(-c2cc3c(C)nc(N)nc3n([C@H]3CC[C@H](OCCO)CC3)c2=O)cn1 (100 nM)  53.4%

What follows are molecules tested on SK-BR-3 in the same assay as above. Conditions: incubation time: 72 h.
Experimental: as §1

In order of falling normalised response:
1. Nc1ccccc1NC(=O)c1ccc(CNc2nccc(-c3cccnc3)n2)cc1 [Mocetinostat] (100 nM)  115%
2. CC/C(=C(\c1ccc(O)cc1)c1ccc(OCCN(C)C)cc1)c1ccccc1 [4-hydroxytamoxifen] (100 nM)  101%
3. O=S(=O)(c1cccc2cnccc12)N1CCCNCC1 [Fasudil] (500 nM)  101%
4. Cc1ccc(Nc2nccc(N(C)c3ccc4c(C)n(C)nc4c3)n2)cc1S(N)(=O)=O [Pazopanib] (100 nM)  100%
5. Nc1cccc2c1CN(C1CCC(=O)NC1=O)C2=O (configuration not stated) [Lenalidomide] (100 nM)  98.4%
6. O=C(NC[C@H](O)CO)c1ccncc1Nc1ccc(I)cc1F [Pimasertib] (100 nM)  94%
7. O=C(Nc1c[nH]nc1-c1nc2ccc(CN3CCOCC3)cc2[nH]1)NC1CC1 [AT9283] (10 nM)  93.5%
8. CO[C@@H](C(=O)N1Cc2[nH]nc(NC(=O)c3ccc(N4CCN(C)CC4)cc3)c2C1)c1ccccc1 [Danusertib] (100 nM)  82.5%
9. COc1ccc(-c2cc3c(C)nc(N)nc3n([C@H]3CC[C@H](OCCO)CC3)c2=O)cn1 (100 nM)  42%

These molecules were tested on HCC1937 in the same assay as above. Conditions: incubation time: 72 h.
Experimental: as §1

In order of rising normalised response:
1. COc1ccc(-c2cc3c(C)nc(N)nc3n([C@H]3CC[C@H](OCCO)CC3)c2=O)cn1 (100 nM)  74.5%
2. Nc1ccccc1NC(=O)c1ccc(CNc2nccc(-c3cccnc3)n2)cc1 [Mocetinostat] (100 nM)  86.1%
3. O=C(NC[C@H](O)CO)c1ccncc1Nc1ccc(I)cc1F [Pimasertib] (100 nM)  89.2%
4. CC/C(=C(\c1ccc(O)cc1)c1ccc(OCCN(C)C)cc1)c1ccccc1 [4-hydroxytamoxifen] (100 nM)  95%
5. Nc1cccc2c1CN(C1CCC(=O)NC1=O)C2=O (configuration not stated) [Lenalidomide] (100 nM)  95.3%
6. CO[C@@H](C(=O)N1Cc2[nH]nc(NC(=O)c3ccc(N4CCN(C)CC4)cc3)c2C1)c1ccccc1 [Danusertib] (100 nM)  96.8%
7. O=C(Nc1c[nH]nc1-c1nc2ccc(CN3CCOCC3)cc2[nH]1)NC1CC1 [AT9283] (10 nM)  98.1%
8. Cc1ccc(Nc2nccc(N(C)c3ccc4c(C)n(C)nc4c3)n2)cc1S(N)(=O)=O [Pazopanib] (100 nM)  99%
9. O=S(=O)(c1cccc2cnccc12)N1CCCNCC1 [Fasudil] (500 nM)  100%
